Source: patent publication US20240246942A1, “KINASE INHIBITORS FOR THE TREATMENT OF NEURODEGENERATIVE DISEASES” (priority 2020, published 2024)

What was measured:
Test in all cases: biochemical
[1] = molecular target: T1, panel of 374 wild-type kinases (Homo sapiens, UniProt P42681); conditions: read-out: % Enzyme Activity (relative to DMSO controls), kinase TXK
T1 construct: purchased Reaction Biology Corporation
T1 sequence (P42681 1-527): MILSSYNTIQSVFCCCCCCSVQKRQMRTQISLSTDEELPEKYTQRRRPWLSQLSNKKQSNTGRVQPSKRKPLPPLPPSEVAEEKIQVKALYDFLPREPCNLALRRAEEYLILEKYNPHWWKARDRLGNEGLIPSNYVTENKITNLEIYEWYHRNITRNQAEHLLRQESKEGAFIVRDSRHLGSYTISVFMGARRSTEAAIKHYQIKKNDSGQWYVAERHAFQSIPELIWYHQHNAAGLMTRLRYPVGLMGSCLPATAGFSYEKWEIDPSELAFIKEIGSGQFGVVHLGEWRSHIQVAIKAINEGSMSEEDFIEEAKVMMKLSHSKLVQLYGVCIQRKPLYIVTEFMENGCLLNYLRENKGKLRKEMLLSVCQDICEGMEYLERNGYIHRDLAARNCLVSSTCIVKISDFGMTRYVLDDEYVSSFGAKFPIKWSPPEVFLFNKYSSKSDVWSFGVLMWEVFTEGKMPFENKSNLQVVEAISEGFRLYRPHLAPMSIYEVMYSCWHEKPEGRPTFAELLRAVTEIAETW

[2] = molecular target: T2, panel of 374 wild-type kinases (Homo sapiens, UniProt P43403); conditions: read-out: % Enzyme Activity (relative to DMSO controls), kinase ZAP70
T2 construct: purchased Reaction Biology Corporation
T2 sequence (P43403 1-619): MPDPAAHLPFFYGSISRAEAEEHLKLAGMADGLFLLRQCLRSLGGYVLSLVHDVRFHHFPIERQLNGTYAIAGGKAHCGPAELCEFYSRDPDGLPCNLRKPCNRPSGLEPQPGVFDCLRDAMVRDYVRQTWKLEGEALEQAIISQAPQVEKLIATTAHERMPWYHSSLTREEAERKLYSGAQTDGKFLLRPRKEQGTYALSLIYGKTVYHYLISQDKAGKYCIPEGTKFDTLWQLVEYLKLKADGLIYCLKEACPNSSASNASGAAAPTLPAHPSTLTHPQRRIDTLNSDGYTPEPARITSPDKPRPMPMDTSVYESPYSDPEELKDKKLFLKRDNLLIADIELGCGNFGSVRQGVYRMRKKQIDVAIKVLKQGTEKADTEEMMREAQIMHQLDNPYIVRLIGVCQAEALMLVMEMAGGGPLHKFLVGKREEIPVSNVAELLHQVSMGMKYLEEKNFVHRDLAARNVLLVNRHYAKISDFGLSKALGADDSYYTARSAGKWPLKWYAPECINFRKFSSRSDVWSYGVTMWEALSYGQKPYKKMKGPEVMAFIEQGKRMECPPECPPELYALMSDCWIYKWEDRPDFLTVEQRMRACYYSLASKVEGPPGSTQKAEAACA

[3] = molecular target: T3, panel of 374 wild-type kinases (Homo sapiens, UniProt P45984); conditions: JNK2, read-out: % Enzyme Activity (relative to DMSO controls)
T3 construct: purchased Reaction Biology Corporation
T3 sequence (P45984 whole entry): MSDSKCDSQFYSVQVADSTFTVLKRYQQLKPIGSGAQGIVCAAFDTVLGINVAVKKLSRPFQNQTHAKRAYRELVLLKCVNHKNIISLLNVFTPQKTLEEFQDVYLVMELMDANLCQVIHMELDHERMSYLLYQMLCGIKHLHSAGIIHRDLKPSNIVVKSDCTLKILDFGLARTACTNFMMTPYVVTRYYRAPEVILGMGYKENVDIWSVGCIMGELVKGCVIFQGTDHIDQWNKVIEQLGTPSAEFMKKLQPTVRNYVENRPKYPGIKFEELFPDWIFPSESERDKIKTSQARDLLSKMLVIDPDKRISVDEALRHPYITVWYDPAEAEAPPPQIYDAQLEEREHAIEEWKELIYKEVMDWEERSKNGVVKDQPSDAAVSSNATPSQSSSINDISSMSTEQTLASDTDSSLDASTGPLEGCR

[4] = molecular target: T4, panel of 374 wild-type kinases (Homo sapiens, UniProt P49841); conditions: read-out: % Enzyme Activity (relative to DMSO controls), GSK3b
T4 construct: purchased Reaction Biology Corporation
T4 sequence (P49841 whole entry): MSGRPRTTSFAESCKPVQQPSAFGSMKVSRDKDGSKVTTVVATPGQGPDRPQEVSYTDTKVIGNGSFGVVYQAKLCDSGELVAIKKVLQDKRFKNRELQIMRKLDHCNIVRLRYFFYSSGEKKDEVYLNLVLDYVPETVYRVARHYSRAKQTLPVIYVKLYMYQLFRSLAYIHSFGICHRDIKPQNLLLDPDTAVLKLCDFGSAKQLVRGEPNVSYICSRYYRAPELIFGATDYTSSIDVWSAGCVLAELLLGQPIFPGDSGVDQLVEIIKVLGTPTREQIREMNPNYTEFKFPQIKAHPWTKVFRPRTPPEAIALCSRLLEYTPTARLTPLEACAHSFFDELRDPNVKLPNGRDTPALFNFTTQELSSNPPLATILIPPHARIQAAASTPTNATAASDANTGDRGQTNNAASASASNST

[5] = molecular target: T5, panel of 374 wild-type kinases (Homo sapiens, UniProt Q08881); conditions: read-out: % Enzyme Activity (relative to DMSO controls), ITK
T5 construct: purchased Reaction Biology Corporation
T5 sequence (Q08881 1-620): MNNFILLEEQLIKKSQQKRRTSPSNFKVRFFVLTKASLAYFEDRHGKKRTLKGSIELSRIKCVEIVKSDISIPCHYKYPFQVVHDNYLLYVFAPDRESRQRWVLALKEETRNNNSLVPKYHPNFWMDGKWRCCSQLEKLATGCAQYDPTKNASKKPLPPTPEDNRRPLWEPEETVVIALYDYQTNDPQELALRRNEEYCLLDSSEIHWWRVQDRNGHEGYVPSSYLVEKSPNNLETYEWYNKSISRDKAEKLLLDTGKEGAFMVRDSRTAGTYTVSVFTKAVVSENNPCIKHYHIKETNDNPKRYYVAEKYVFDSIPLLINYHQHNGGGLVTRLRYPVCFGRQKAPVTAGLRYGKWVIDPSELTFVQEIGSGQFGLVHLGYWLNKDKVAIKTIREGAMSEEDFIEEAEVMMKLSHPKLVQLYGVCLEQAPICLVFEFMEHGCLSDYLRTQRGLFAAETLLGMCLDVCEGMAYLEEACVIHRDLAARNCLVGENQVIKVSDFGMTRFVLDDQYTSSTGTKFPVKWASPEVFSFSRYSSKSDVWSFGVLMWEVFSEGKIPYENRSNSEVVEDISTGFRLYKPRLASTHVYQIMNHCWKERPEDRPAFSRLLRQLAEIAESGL

[6] = molecular target: T6, panel of 374 wild-type kinases (Homo sapiens, UniProt Q13554); conditions: read-out: % Enzyme Activity (relative to DMSO controls), CAMK2b
T6 construct: purchased Reaction Biology Corporation
T6 sequence (Q13554 whole entry): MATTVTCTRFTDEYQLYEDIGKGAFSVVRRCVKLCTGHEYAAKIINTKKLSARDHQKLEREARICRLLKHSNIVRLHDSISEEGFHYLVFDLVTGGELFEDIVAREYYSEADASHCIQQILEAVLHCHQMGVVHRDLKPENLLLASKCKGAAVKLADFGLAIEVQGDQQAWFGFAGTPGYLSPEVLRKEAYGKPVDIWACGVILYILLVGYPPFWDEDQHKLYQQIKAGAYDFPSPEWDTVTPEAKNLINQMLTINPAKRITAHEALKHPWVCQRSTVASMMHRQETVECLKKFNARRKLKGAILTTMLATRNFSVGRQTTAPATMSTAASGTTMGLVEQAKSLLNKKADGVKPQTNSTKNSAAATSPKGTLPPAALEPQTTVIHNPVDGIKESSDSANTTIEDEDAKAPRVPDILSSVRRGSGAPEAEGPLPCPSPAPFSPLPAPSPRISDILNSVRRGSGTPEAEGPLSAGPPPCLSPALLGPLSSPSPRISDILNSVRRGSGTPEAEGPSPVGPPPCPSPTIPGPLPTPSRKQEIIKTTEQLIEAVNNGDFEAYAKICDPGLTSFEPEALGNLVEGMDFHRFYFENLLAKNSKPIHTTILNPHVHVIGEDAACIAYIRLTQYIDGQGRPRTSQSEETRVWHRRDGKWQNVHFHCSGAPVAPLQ

[7] = molecular target: T7, panel of 374 wild-type kinases (Homo sapiens, UniProt Q52WX2); conditions: read-out: % Enzyme Activity (relative to DMSO controls), kinase SBK1
T7 construct: purchased Reaction Biology Corporation
T7 sequence (Q52WX2 whole entry): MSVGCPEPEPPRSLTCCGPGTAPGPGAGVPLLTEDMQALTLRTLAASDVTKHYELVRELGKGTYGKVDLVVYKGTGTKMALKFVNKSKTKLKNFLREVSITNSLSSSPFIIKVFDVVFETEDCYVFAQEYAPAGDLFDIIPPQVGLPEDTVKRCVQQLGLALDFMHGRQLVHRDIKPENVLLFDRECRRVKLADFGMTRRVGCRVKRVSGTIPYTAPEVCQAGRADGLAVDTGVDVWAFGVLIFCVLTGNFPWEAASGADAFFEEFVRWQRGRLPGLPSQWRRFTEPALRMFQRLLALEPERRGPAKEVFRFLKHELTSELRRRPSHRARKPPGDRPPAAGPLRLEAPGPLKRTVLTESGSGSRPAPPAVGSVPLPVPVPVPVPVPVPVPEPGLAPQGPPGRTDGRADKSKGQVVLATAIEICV

[8] = molecular target: T8, panel of 374 wild-type kinases (Homo sapiens, UniProt Q86V86); conditions: read-out: % Enzyme Activity (relative to DMSO controls), kinase PIM3
T8 construct: purchased Reaction Biology Corporation

[9] = molecular target: T9, panel of 374 wild-type kinases (Homo sapiens, UniProt Q86Y07); conditions: read-out: % Enzyme Activity (relative to DMSO controls), kinase VRK2
T9 construct: purchased Reaction Biology Corporation
T9 sequence (Q86Y07 whole entry): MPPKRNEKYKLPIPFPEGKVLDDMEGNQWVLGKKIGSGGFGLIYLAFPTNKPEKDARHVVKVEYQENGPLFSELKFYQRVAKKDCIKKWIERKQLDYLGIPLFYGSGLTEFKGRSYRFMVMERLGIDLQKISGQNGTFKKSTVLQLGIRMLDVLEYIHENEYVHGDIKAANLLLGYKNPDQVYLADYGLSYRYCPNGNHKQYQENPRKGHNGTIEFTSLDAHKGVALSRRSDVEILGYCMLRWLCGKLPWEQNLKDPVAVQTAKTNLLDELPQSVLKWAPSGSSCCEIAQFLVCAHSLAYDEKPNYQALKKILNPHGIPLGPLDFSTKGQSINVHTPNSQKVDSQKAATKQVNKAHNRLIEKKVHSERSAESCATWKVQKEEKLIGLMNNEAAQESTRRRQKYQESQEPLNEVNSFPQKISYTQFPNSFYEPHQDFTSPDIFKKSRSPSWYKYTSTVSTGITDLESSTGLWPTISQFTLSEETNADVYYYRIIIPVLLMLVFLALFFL

Compound | remaining activity at 10 µM ([1]; 10 uM) [%] | remaining activity at 10 µM ([2]; 10 uM) [%] | remaining activity at 10 µM ([3]; 10 uM) [%] | remaining activity at 10 µM ([4]; 10 uM) [%] | remaining activity at 10 µM ([5]; 10 uM) [%] | remaining activity at 10 µM ([6]; 10 uM) [%] | remaining activity at 10 µM ([7]; 10 uM) [%] | remaining activity at 10 µM ([8]; 10 uM) [%] | remaining activity at 10 µM ([9]; 10 uM) [%] | remaining activity at 5 µM [1] [%] | remaining activity at 5 µM [2] [%] | remaining activity at 5 µM [3] [%] | remaining activity at 5 µM [4] [%] | remaining activity at 5 µM [5] [%] | remaining activity at 5 µM [6] [%] | remaining activity at 5 µM [7] [%] | remaining activity at 5 µM [8] [%] | remaining activity at 5 µM [9] [%]
Cc1sc(C(=O)NC2COC2)cc1-n1cc(NC(=O)Nc2c(F)cccc2Cl)cn1 [Compound 27, 4-(4-(3-(2-chloro-6-fluorophenyl)ureido)-1H-pyrazol-1-yl)-5-methyl-N-(oxetan-3-yl)thiophene-2-carboxamide] | 76.7 | 103 | 51.9 | 94.9 | 94.4 | 100 | 87.5 | 129 | 102 | – | – | – | – | – | – | – | – | –
O=C(Nc1cnn(-c2csc(C(=O)NC3COC3)c2)c1)Nc1c(F)cccc1Cl [Compound 25, 4-(4-(3-(2-chloro-6-fluorophenyl)ureido)-1H-pyrazol-1-yl)-N-(oxetan-3-yl)thiophene-2-carboxamide] | – | – | – | – | – | – | – | – | – | 90.8 | 104 | 22.7 | 95.7 | 92.8 | 99.1 | 97.7 | 73.9 | 102
O=C(Nc1cnn(-c2csc(C(=O)NC3COC3)c2)c1)Nc1ccccc1Cl [Compound 17, 4-(4-(3-(2-chlorophenyl)ureido)-1H-pyrazol-1-yl)-N-(oxetan-3-yl)thiophene-2-carboxamide] | – | – | – | – | – | – | – | – | – | 89.8 | 102 | 34.1 | 95 | 107 | 105 | 99.1 | 61.2 | 103
